“Also recorded” adds a separate entry of the source.
Key:
iSPNs = assay: Patch-clamp recording of LTD induction in striatal slices from 6-OHDA lesioned animals; design: species or system Mouse; conditions: dyskinetic ON-state after L-DOPA
Description: (§1) Mice were deeply anesthetized intraperitoneally with a mixture of ketamine and xylazine. Parasagittal slices were cut in ice-cold aCSF. Whole-cell and perforated-patch recordings were performed in the dorsolateral striatum at 30-31° C. […] These protocols consisted of 20-60 trains of five bursts repeated at 0.1 Hz, with each burst composed of three APs preceded with three EPSPs at 50 Hz (pre-post timing pairing, +5 ms) or three APs followed by one EPSP (post-pre timing pairing, −10 ms). To ensure induction of consistent synaptic plasticity, postsynaptic neurons were depolarized to −70 mV from their typical resting membrane potentials (−85 mV) during their induction. GABAA was blocked by the bath application of gabazine (10 μM).
(§2) Data analysis was conducted with Igor Pro 6 and Clampfit 9. EPSP amplitude was calculated from 50 sweeps immediately before the start of induction and 20-30 min after the end of induction. Compiled data were expressed as mean±SEM. Statistical tests were performed using Excel and SigmaStat. Nonparametric Mann-Whitney or Wilcoxon tests were used to assess the experiment results, using a probability threshold of 0.05. Statistical analyses for behavioral data were carried out using Prism 6. Data were analyzed using parametric repeated measure two-way ANOVA followed by post hoc Bonferroni's test.

dSPNs = assay: Patch-clamp recording of LTP induction in striatal slices from 6-OHDA lesioned animals; design: species or system Mouse; conditions: shortly after the last injection of L-DOPA (ON-state)
Description: as §1, §2

[1] = system: unilateral 6-OHDA lesioned mice (L-DOPA-induced dyskinesia); assay: Mouse unilateral 6-OHDA model and LID, abnormal involuntary movements (AIMs) scoring; type: in vivo
Description: Mouse Unilateral 6-Hydroxydopamine (6-OHDA) Model and LID
Mice were anaesthetized with an isoflurane precision vaporizer, placed in a stereotaxic frame, and a hole was drilled over the medial forebrain bundle. After exposing the skull, 3.5 mg ml^−1 free base 6-OHDA with 0.02% ascorbic acid was injected using a glass micropipette. Three weeks after surgery, the degree of damage to nigrostriatal DA neurons was assessed with a forelimb-use asymmetry test. Striatal sections from a subset of mice were stained with tyrosine hydroxylase to verify successful lesion. One day after the test, mice underwent behavioral testing for abnormal involuntary movements (AIMs) following L-DOPA treatment. Treatment with L-DOPA was given daily for 15 days at the doses of 3 mg kg^−1. Animals were randomly allocated to receive treatment with L-DOPA and vehicle, or L-DOPA and an A2a receptor antagonist.
as §2, with “Nonparametric Mann-Whitney or Wilcoxon tests were used to assess the experiment results, using a probability threshold of 0.05. Statistical analyses for behavioral data were carried out using Prism 6.” left out

Compound | LTD induction in iSPNs (iSPNs) | LTP induction in dSPNs (dSPNs) | development of LID behaviors ([1]; systemic tozadenant 30 mg/kg 5 hours after L-DOPA doses, L-DOPA 3 mg/kg daily for 15 days, vs L-DOPA+vehicle, p<0.05) | LID scores induced by subsequent doses of L-DOPA (ON-state) ([1]; treated in the LID OFF-state)
N[C@@H](Cc1ccc(O)c(O)c1)C(=O)O [L-DOPA, L-3,4-dihydroxyphenylalanine] | LTD was recovered; also recorded: LTD in iSPNs | LTP was recovered in dSPNs; also recorded: restores LTP in dSPNs |  | 
COc1ccc(N2CCOCC2)c2sc(NC(=O)N3CCC(C)(O)CC3)nc12 [tozadenant] |  |  | reduces the development of LID behaviors | significantly attenuates LID scores
